We go through one molecule from patent US20150184166A1 (Uinversity of Iowa Research Foundation, priority 2012, published 2015).

In one assay the target is T1, NdmA-His6 (Pseudomonas putida, UniProt H9N289).
T1 sequence (H9N289 1-351): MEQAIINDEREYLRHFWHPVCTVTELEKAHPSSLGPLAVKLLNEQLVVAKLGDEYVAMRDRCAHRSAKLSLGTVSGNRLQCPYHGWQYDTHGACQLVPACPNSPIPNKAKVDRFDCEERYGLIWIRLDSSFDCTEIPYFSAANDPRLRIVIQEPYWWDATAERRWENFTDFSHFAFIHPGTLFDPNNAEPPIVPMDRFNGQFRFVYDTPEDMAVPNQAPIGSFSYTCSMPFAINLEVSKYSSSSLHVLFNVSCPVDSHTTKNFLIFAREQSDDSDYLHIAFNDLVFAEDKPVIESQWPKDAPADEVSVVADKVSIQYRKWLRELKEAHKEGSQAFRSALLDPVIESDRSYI
Nature of the assay: Kinetic parameters of NdmA-His6 with His6-NdmD. It is filed as biochemical, Pseudomonas putida CBB5. On the procedure: (§1) Methylxanthine N-demethylase activity assay contained, in 1-ml total volume, 0.5 mM methylxanthine, 1 mM NADH, 50 μM Fe(NH4)2(SO4)2, and an appropriate amount of NdmA-His6 or NdmB-His6 (7.4 μg-2.5 mg protein depending on substrate specificity) in 50 mM KPi buffer (pH 7.5). Approximately 4 U of partially purified reductase, prepared as described previously (Summers et al., 2011) or 59 U of purified His6-NdmD was added to reaction mixture. Catalase from bovine liver (4,000 U) was also added to reactions containing His6-NdmD. The reaction mixture was incubated at 30° C. with 300 rpm shaking on an incubating microplate shaker (VWR, Radnor, Pa.). Periodically, a small aliquot was sampled from the reaction mixture and mixed with equal volume of acetonitrile for quantifying concentrations of methylxanthines and N-demethylated products by HPLC. One unit of N-demethylase activity was defined as the consumption of one […] methylxanthine per minute.
(§2) Apparent kinetic parameters of NdmA-His6 and NdmB-His6 were determined by measuring the initial rate of disappearance (vo) of methylxanthines in 50 mM KPi buffer (pH 7.5) at 30° C. The initial substrate concentrations ([S]) used in these experiments were from 25 to 500 μM. Substrates were incubated with His6-NdmD plus either NdmA-His6 or NdmB-His6 under standard conditions for 15 minutes. At 1, 5, 10, and 15 minutes, samples were removed from the reaction mixtures to quantitate substrate concentrations by HPLC. Plots of substrate concentrations against time were used to determine the initial rates of disappearance of substrates which were linear over 15 minutes. The apparent kinetic parameters were determined from Michaelis-Menten plots of vo against [S] fitted with the equation

A further assay deals with NdmC. As to the kind of experiment: N-demethylation by NdmC fraction co-purified with reductase. It is filed as biochemical, Pseudomonas putida CBB5. An excerpt:
This activity was neither associated with NdmA nor with NdmB. […] Cloning of NdmC has proven difficult; nevertheless based on the fact that purified His6-NdmD had no activity on 7-methylxanthine, we annotate orf 8 as aanother RO with highly specific N-7 demthylase activity.

For a further assay, the target named is NdmB-His6 (Pseudomonas putida, UniProt H9N290). As to the kind of experiment: Kinetic parameters of NdmB-His6 with His6-NdmD. It is filed as biochemical, Pseudomonas putida CBB5. As to the method:
as §1, §2

Assay [1] deals with Ndm (methylxanthine N-demethylase) with Ccr reductase.
A further assay concerns the target His6-NdmD (Pseudomonas putida, UniProt H9N291). Nature of the assay: N-demethylation by purified His6-NdmD alone. It is filed as biochemical, Pseudomonas putida CBB5. On the procedure:
as §1

The structures appear in SMILES notation.

Chain of NdmB-His6 (H9N290 whole entry): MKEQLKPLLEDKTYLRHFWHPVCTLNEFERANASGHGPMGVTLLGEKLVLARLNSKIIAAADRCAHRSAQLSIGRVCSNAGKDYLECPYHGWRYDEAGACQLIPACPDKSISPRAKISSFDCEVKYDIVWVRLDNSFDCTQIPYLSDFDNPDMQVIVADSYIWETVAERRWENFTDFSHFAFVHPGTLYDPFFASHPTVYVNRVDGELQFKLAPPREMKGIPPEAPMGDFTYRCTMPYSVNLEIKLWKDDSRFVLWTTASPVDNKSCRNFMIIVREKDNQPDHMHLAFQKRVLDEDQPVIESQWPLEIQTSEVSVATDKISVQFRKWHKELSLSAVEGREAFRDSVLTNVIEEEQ
Chain of His6-NdmD (H9N291 1-588 with tags or gaps): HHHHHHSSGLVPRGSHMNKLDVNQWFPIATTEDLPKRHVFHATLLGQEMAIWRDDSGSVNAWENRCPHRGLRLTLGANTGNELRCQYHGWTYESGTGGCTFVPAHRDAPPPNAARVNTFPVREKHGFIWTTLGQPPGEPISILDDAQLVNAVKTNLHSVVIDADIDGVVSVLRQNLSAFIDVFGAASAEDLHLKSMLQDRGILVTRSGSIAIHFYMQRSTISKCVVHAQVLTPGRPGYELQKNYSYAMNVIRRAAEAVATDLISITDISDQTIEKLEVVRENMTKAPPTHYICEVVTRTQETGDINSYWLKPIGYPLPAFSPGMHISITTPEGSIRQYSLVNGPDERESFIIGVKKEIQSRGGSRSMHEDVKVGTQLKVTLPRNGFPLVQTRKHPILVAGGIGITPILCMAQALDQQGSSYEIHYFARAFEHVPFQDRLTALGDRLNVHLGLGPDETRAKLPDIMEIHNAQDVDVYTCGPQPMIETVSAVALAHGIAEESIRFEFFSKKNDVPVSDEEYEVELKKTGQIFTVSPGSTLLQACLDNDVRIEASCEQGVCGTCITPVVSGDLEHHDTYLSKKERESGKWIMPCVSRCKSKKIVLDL

For the molecule `Cn1cnc2[nH]c(=O)[nH]c(=O)c21` [7-Methylxanthine, 7-methylxanthine], the “N-demethylation activity of NdmA” value on NdmA-His6 was “inactive”. Further, the Km result on NdmA-His6 (NdmA-His6 plus His6-NdmD, pH 7.5, 30° C.) was “∞”; at NdmB-His6 (NdmB-His6 plus His6-NdmD, pH 7.5, 30° C.), “∞”; in assay [1] (read-out: apparent KM, saturating Ccr, 50 μM Fe2+, 30° C., 50 mM KPi pH 7.5), 63.8 ± 7.5 µM. Moreover, the “N-demethylation by NdmC/reductase fraction” value with NdmC is given as “specifically N-demethylated”. For the same molecule, on NdmB-His6, the “N-demethylation activity of NdmB” value is reported as “no activity”. Also, in assay [1] (90 minutes, 7.4 mU (7.4 units) of Ndm), the “product formed from paraxanthine” value worked out at 126.9 ± 6.4 µM. Further, the N-demethylation product present result in assay [1] (from paraxanthine, after 13 minutes) is on record as “Approximately 39.9 μM”. Further, the apparent kcat in assay [1] (saturating Ccr, 50 μM Fe2+, 30° C., 50 mM KPi pH 7.5) worked out at 1.58 ± 0.05 s⁻¹. In addition, the “activity of purified His6-NdmD” value on His6-NdmD was “no activity”.

Usually Km stands for the concentration of substrate that gives half-maximal velocity.
